Experimental data taken from patent US9302999B2, “Substituted triazoles as herbicides” (E. I. DU PONT DE NEMOURS AND COMPANY, priority 2012, dated 2016).

Assays:
Assay type in all cases: in vivo
[1] = tested on: rice (Oryza sativa); assay: Test B flooded paddy: rice; conditions: Flood, applied to paddy water at 2-leaf stage, visually evaluated after 13 to 15 days
Summary of the method: (§1)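 Paddy-water application: seedlings at 2-leaf stage, flood depth 3 cm maintained for the test duration. Evaluation after 13–15 days in the greenhouse by eye relative to controls; 0–100 scale.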

[2] = tested on: ducksalad (Heteranthera limosa); assay: Test B flooded paddy: ducksalad; conditions: Flood, applied to paddy water at 2-leaf stage, visually evaluated after 13 to 15 days
Summary of the method: as §1

[3] = tested on: barnyardgrass (Echinochloa crus-galli); assay: Test C flooded paddy test: barnyardgrass; conditions: Echinochloa crus-galli, scale 0 to 100 (0 no effect, 100 complete control), read-out: Plant response rating, Barnyardgrass
Summary of the method: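 Plants at 2-leaf stage in pots flooded 3 cm above soil; compounds applied directly into the paddy water, depth maintained. Visual rating against controls after 13–15 days in greenhouse, scale 0 (no effect) to 100 (complete control).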

[4] = tested on: foxtail, green (green foxtail, Setaria viridis); assay: Test D pre-/postemergence: foxtail, green
Summary of the method: (§2)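 Visual control ratings (0–100) after 14–21 days, controlled environment. Preemergence on silt loam; postemergence on 2–18 cm plants.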

[5] = tested on: lambsquarters (Chenopodium album); assay: Test D pre-/postemergence: lambsquarters
Text: (§3) Seeds of plant species selected from bluegrass (annual bluegrass, Poa annua), blackgrass (Alopecurus myosuroides), canarygrass (Phalaris minor), chickweed (common chickweed, Stellaria media), galium (catchweed bedstraw, Galium aparine), bromegrass, downy (downy bromegrass, Bromus tectorum), field poppy (Papaver rhoeas), field violet (Viola arvensis), foxtail, green (green foxtail, Setaria viridis), deadnettle (henbit deadnettle, Lamium amplexicaule), ryegrass, Italian (Italian ryegrass, Lolium multiflorum), kochia (Kochia scoparia), lambsquarters (Chenopodium album), oilseed rape (Brassica napus), pigweed (Amaranthus retroflexus), Russian thistle (Salsola iberica), chamomile (scentless chamomile, Matricaria inodora), speedwell (bird's-eye speedwell, Veronica persica), barley, spring (spring barley, Hordeum vulgare), wheat, spring (spring wheat, Triticum aestivum), buckwheat, wild (wild buckwheat, Polygonum convolvulus), mustard, wild (wild mustard, Sinapis arvensis), oat, wild (wild oat, Avena fatua), radish, wild (wild radish, Raphanus raphanistrum), windgrass (Apera spica-venti), barley, winter (winter barley, Hordeum vulgare), and wheat, winter (winter wheat, Triticum aestivum) were planted into a silt loam soil and treated preemergence with test chemicals formulated in a non-phytotoxic solvent mixture which included a surfactant. At the same time, these same crop and weed species were planted in pots containing the planting medium comprising spaghnum peat moss, vermiculite, wetting agent and starter nutrients and treated with postemergence applications of the test chemicals formulated in the same manner. Plants ranged in height from 2 to 18 cm (1- to 4-leaf stage).
(§4) Treated plants and controls were maintained in a controlled growth environment for 14 to 21 days after which time all species were compared to controls and visually evaluated. Plant response ratings, summarized in Table D, are based on a scale of 0 to 100 where 0 is no effect and 100 is complete control. A dash (-) response means no test result.

[6] = tested on: oat, wild (wild oat, Avena fatua); assay: Test D pre-/postemergence: oat, wild
Summary of the method: as §2

[7] = tested on: bluegrass (annual bluegrass, Poa annua); assay: Test D pre-/postemergence: bluegrass
Text: as §3, §4

[8] = tested on: goosegrass (Eleusine indica); assay: Test C pre-/postemergence: goosegrass
Text: Seeds of plant species selected from blackgrass (Alopecurus myosuroides), bromegrass, downy (downy bromegrass, Bromus tectorum), foxtail, green (green foxtail, Setaria viridis), ryegrass, Italian (Italian ryegrass, Lolium multiflorum), winter wheat (Triticum aestivum), wild oat (Avena fatua), galium (catchweed bedstraw, Galium aparine), bermudagrass (Cynodon dactylon), surinam grass (Brachiaria decumbens), cocklebur (common cocklebur, Xanthium strumarium), corn (Zea mays), large crabgrass (Digitaria sanguinalis), woolly cupgrass (Eriochloa villosa), foxtail, giant (giant foxtail, Setaria faberii), goosegrass (Eleusine indica), johnsongrass (Sorghum halepense), kochia (Kochia scoparia), lambsquarters (Chenopodium album), morningglory (Ipomoea coccinea), nightshade (eastern black nightshade, Solanum ptycanthum), nutsedge, yellow (yellow nutsedge, Cyperus esculentus), pigweed (Amaranthus retroflexus), ragweed (common ragweed, Ambrosia elation), soybean (Glycine max), common (oilseed) sunflower (Helianthus annuus), Russian thistle (Salsola kali) and velvetleaf (Abutilon theophrasti) were planted into a blend of loam soil and sand and treated preemergence with test chemicals formulated in a non-phytotoxic solvent mixture which included a surfactant.
At the same time, plants selected from these crop and weed species and also barley (winter barley, Hordeum vulgare), canarygrass (Phalaris minor), chickweed (common chickweed, Stellaria media) windgrass (Apera spica-venti) and deadnettle (henbit deadnettle, Lamium amplexicaule) were planted in pots containing Redi-Earth® planting medium (Scotts Company, 14111 Scottslawn Road, Marysville, Ohio 43041) comprising spaghnum peat moss, vermiculite, wetting agent and starter nutrients and treated with postemergence applications of test chemicals formulated in the same manner. Plants ranged in height from 2 to 18 cm (1- to 4-leaf stage) for postemergence treatments.
as §4, with “greenhouse” for “controlled growth environment”, “13” for “14”, “15 days,” for “21 days”, “C,” for “D,”

[9] = Postemergence, 31 g ai/ha, scale 0 to 100 (0 no effect, 100 complete control)
[10] = Postemergence, 62 g ai/ha, scale 0 to 100 (0 no effect, 100 complete control)
[11] = Postemergence, 125 g ai/ha, scale 0 to 100, 0 no effect, 100 complete control
[12] = Postemergence, 250 g ai/ha, scale 0 to 100 (0 no effect, 100 complete control)
[13] = Postemergence, 16 g ai/ha, scale 0 to 100
[14] = Preemergence, 16 g ai/ha, scale 0 to 100 (0 no effect, 100 complete control)
[15] = Preemergence, 31 g ai/ha, scale 0 to 100 (0 no effect, 100 complete control)
[16] = Preemergence, 62 g ai/ha, scale 0 to 100
[17] = Preemergence, 125 g ai/ha, scale 0 to 100
[18] = Preemergence, 250 g ai/ha, scale 0 to 100
[19] = Postemergence, 250 g ai/ha, scale 0 to 100

SMILES: CCCc1nn(-c2ccc(F)cc2)nc1Cc1ccnc(C(F)(F)F)c1 [Compound 153]
- Plant response rating, Rice (0 to 100 scale, 0 is no effect, 100 is complete control) ([1]; 250 g ai/ha): 60
- Plant response rating, Ducksalad (0 to 100 scale, 0 is no effect, 100 is complete control) ([2]; 250 g ai/ha): 90

SMILES: Cc1nn(-c2ccc(F)cc2)nc1Cc1ccnc(C(F)(F)F)c1 [Compound 16, 4-[[2-(4-fluorophenyl)-5-methyl-2H-1,2,3-triazol-4-yl]methyl]-2-(trifluoromethyl)pyridine]
- pest or weed control at 62 g/ha ([3]; Flood (flooded paddy test), 62 g ai/ha, visual rating after 13 to 15 days): 65%
- pest or weed control at 125 g/ha ([3]; Flood (flooded paddy test), 125 g ai/ha, visual rating after 13 to 15 days): 70%
- pest or weed control at 250 g/ha ([3]; Flood (flooded paddy test), 250 g ai/ha, visual rating after 13 to 15 days): 80%
- pest or weed control at 31 g/ha ([3]; Flood, 31 g ai/ha): 25%
- Plant response rating: Foxtail, Green [4, 9]: 30
- Plant response rating: Foxtail, Green [4, 10]: 80
- Plant response rating: Foxtail, Green [4, 11]: 90
- Plant response rating: Foxtail, Green [4, 12]: 95
- Plant response rating, Foxtail, Green [4, 13]: 30
- Plant response rating, Foxtail, Green [4, 14]: 25
- Plant response rating, Foxtail, Green [4, 15]: 100
- Plant response rating, Foxtail, Green [4, 16]: 100
- Plant response rating, Foxtail, Green [4, 17]: 100
- Plant response rating, Foxtail, Green [4, 18]: 100
- Plant response rating: Lambsquarters [5, 9]: 80
- Plant response rating: Lambsquarters [5, 10]: 100
- Plant response rating: Lambsquarters [5, 11]: 100
- Plant response rating: Lambsquarters [5, 12]: 100
- Plant response rating, Lambsquarters [5, 13]: 75
- Plant response rating, Lambsquarters [5, 14]: 30
- Plant response rating, Lambsquarters [5, 15]: 50
- Plant response rating, Lambsquarters [5, 16]: 80
- Plant response rating, Lambsquarters [5, 17]: 95
- Plant response rating, Lambsquarters [5, 18]: 100
- Plant response rating: Oat, Wild [6, 9]: 10
- Plant response rating: Oat, Wild [6, 10]: 30
- Plant response rating: Oat, Wild [6, 11]: 45
- Plant response rating: Oat, Wild [6, 12]: 50
- Plant response rating, Oat, Wild [6, 13]: 0
- Plant response rating, Oat, Wild [6, 14]: 0
- Plant response rating, Oat, Wild [6, 15]: 10
- Plant response rating, Oat, Wild [6, 16]: 10
- Plant response rating, Oat, Wild [6, 17]: 100
- Plant response rating, Oat, Wild [6, 18]: 100
- Plant response rating: Bluegrass [7, 9]: 20
- Plant response rating: Bluegrass [7, 10]: 40
- Plant response rating: Bluegrass [7, 11]: 60
- Plant response rating: Bluegrass [7, 12]: 70
- Plant response rating, Bluegrass [7, 13]: 10
- Plant response rating, Bluegrass [7, 14]: 0
- Plant response rating, Bluegrass [7, 15]: 20
- Plant response rating, Bluegrass [7, 16]: 20
- Plant response rating, Bluegrass [7, 17]: 30
- Plant response rating, Bluegrass [7, 18]: 100
- Plant response rating, Goosegrass [8, 9]: 5
- Plant response rating, Goosegrass [8, 10]: 5
- Plant response rating, Goosegrass [8, 11]: 10
- Plant response rating, Goosegrass [8, 19]: 10

SMILES: CCOc1nn(-c2ccc(Br)cc2)nc1Cc1ccnc(C(F)(F)F)c1 [Compound 189]
- Plant response rating, Rice (0 to 100 scale, 0 is no effect, 100 is complete control) ([1]; 125 g ai/ha): 35
- Plant response rating, Ducksalad (0 to 100 scale, 0 is no effect, 100 is complete control) ([2]; 125 g ai/ha): 20

SMILES: CCCc1nn(-c2ccc(C(F)(F)F)c(F)c2)nc1Oc1ccnc(C(F)(F)F)c1 [Compound 185]
- Plant response rating, Rice (0 to 100 scale, 0 is no effect, 100 is complete control) ([1]; 250 g ai/ha): 65
- Plant response rating, Ducksalad (0 to 100 scale, 0 is no effect, 100 is complete control) ([2]; 250 g ai/ha): 65

SMILES: Cc1nn(-c2ccc(C(F)(F)F)c(F)c2)nc1Cc1ccnc(C(F)(F)F)c1 [Compound 162]
- Plant response rating, Rice (0 to 100 scale, 0 is no effect, 100 is complete control) ([1]; 125 g ai/ha): 25
- Plant response rating, Ducksalad (0 to 100 scale, 0 is no effect, 100 is complete control) ([2]; 125 g ai/ha): 0

SMILES: CCc1nn(-c2ccc(F)cc2)nc1Oc1ccnc(C(F)(F)F)c1 [Compound 166]
- Plant response rating, Rice (0 to 100 scale, 0 is no effect, 100 is complete control) ([1]; 125 g ai/ha): 80
- Plant response rating, Ducksalad (0 to 100 scale, 0 is no effect, 100 is complete control) ([2]; 125 g ai/ha): 70

SMILES: Fc1ccc(-n2nc(Cc3ccnc(C(F)(F)F)c3)c(OCC(F)(F)F)n2)cc1 [Compound 142]
- Plant response rating, Rice (0 to 100 scale, 0 is no effect, 100 is complete control) ([1]; 250 g ai/ha): 60
- Plant response rating, Goosegrass [8, 9]: 35
- Plant response rating, Goosegrass [8, 10]: 35
- Plant response rating, Goosegrass [8, 11]: 70
- Plant response rating, Goosegrass [8, 19]: 90
- Plant response rating, Goosegrass ([8]; Preemergence, 31 g ai/ha, scale of 0 to 100, 0 is no effect, 100 is complete control): 100
- Plant response rating, Goosegrass ([8]; Preemergence, 62 g ai/ha, scale of 0 to 100, 0 is no effect, 100 is complete control): 100
- Plant response rating, Goosegrass ([8]; Preemergence, 125 g ai/ha, scale 0 to 100, 0 no effect, 100 complete control): 100
- Plant response rating, Goosegrass ([8]; Preemergence, 250 g ai/ha, scale 0 to 100, 0 no effect, 100 complete control): 100
- Plant response rating, Ducksalad (0 to 100 scale, 0 is no effect, 100 is complete control) ([2]; 250 g ai/ha): 90
